Laboratory results published in publication PMC10966990, “Rational design of a cyclohexanone dehydrogenase for enhanced α,β-desaturation and substrate specificity” (Chemical Science, 2024).

Columns and labels:
[1] = molecular target: T1, cyclohexanone dehydrogenase (CDH) (Alicycliphilus denitrificans, UniProt F4G7N3, Y176F, form not given); test: X-ray crystal structure, […] A; format: binding; conditions: crystals grown with 10 mM cyclohexanone; product modelled in active site next to FAD, further molecules elsewhere
T1 construct: gene Alide2_4318; full gene in pET28a, N-terminal His6 tag, E. coli BL21(DE3); dimer

[2] = molecular target: T2, cyclohexanone dehydrogenase (CDH) (Alicycliphilus denitrificans, UniProt F4G7N3); test: DCPIP colour change assay; format: biochemical; conditions: 0.25 uM enzyme, 2 mM substrate, 75 uM DCPIP, 20 mM Tris-HCl pH 7.8
T2 construct: gene Alide2_4318; full gene in pET28a, N-terminal His6 tag, E. coli BL21(DE3); dimer
Target sequence in this assay (F4G7N3 entry or part of it W94A, form open): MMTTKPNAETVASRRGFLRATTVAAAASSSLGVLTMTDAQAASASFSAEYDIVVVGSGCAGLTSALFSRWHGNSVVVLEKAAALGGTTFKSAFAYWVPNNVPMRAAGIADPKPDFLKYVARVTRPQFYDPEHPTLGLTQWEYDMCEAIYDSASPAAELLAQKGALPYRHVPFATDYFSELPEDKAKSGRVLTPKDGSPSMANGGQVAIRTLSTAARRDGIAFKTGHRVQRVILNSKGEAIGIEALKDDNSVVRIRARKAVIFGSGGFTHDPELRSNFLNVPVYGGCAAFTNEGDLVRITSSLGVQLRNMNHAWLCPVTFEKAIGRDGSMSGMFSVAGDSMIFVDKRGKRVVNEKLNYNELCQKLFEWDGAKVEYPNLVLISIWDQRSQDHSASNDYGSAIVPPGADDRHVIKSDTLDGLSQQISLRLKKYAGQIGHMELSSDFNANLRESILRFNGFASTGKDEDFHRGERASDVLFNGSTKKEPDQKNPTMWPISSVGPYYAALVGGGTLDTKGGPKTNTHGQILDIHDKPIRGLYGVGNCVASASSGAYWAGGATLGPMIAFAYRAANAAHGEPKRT

[3] = molecular target: T2, cyclohexanone dehydrogenase (CDH); test: X-ray crystal structure, […] A; format: binding; conditions: covalent; C8M of FAD 1.84 A from S-gamma of Cys305
[4] = substrate: O=C1CCCCC1; test: DCPIP reduction assay, Michaelis-Menten; format: biochemical, Alicycliphilus denitrificans; conditions: 76 nM enzyme, 60 uM DCPIP, 20 mM Tris-HCl pH 7.8
[5] = substrate: CC1CCCC(=O)C1; test: DCPIP reduction assay, Michaelis-Menten; format: biochemical, Alicycliphilus denitrificans; conditions: 76 nM enzyme, 60 uM DCPIP, 20 mM Tris-HCl pH 7.8, low aqueous solubility of substrate, caution stated
purified protein = substrate: CC1(C)CCC(=O)CC1; test: purified protein; conditions: pH 7.8

T1 sequence (F4G7N3 entry or part of it Y176F, form open): as the sequence (F4G7N3 entry or part of it W94A, form open) above, with A94W, Y176F counted along it

## O=C1C=CCCC1 [compound 10, 2-cyclohexen-1-one]
[1]
  X-ray crystal structure, 1.33 A: 2-cyclohexen-1-one was subsequently modelled to produce the Y195F complex structure

## O=C1CCc2ccccc2O1 [compound 5, dihydrocoumarin]
[2]
  DCPIP colour change assay: the W113A variant, but not WT CDH, with dihydrocoumarin

## Cc1cc2nc3c(=O)[nH]c(=O)nc-3n(C[C@H](O)[C@H](O)[C@H](O)COP(=O)(O)OP(=O)(O)OC[C@H]3O[C@@H](n4cnc5c(N)ncnc54)[C@H](O)[C@@H]3O)c2cc1C [flavin adenine dinucleotide]
[3]
  X-ray crystal structure, 1.86 A: The FAD cofactor was found to occupy a deep positively charged channel

## CC1CCCC(=O)C1 (stereo not shown) [compound 2, 3-methylcyclohexanone]
[2]
  DCPIP colour change assay: The W113A variant showed highest activity on 3-methylcyclohexanone

B1: cyclohexanone dehydrogenase (CDH) (Alicycliphilus denitrificans K601) (protein)
chain: MMTTKPNAETVASRRGFLRATTVAAAASSSLGVLTMTDAQAASASFSAEYDIVVVGSGCAGLTSALFSRWHGNSVVVLEKAAALGGTTFKSAFWYWVPNNVPMRAAGIADPKPDFLKYVARVTRPQFYDPEHPTLGLTQWEYDMCEAIYDSASPAAELLAQKGALPYRHVPFATDYFSELPEDKAKSGRVLTPKDGSPSMANGGQVAIRTLSTAARRDGIAFKTGHRVQRVILNSKGEAIGIEALKDDNSVVRIRARKAVIFGSGGFTHDPELRSNFLNVPVYGGCAAFTNEGDLVRITSSLGVQLRNMNHAWLCPVTFEKAIGRDGSMSGMFSVAGDSMIFVDKRGKRVVNEKLNYNELCQKLFEWDGAKVEYPNLVLISIWDQRSQDHSASNDYGSAIVPPGADDRHVIKSDTLDGLSQQISLRLKKYAGQIGHMELSSDFNANLRESILRFNGFASTGKDEDFHRGERASDVLFNGSTKKEPDQKNPTMWPISSVGPYYAALVGGGTLDTKGGPKTNTHGQILDIHDKPIRGLYGVGNCVASASSGAYWAGGATLGPMIAFAYRAANAAHGEPKRT
notes: full gene in pET28a, N-terminal His6 tag, E. coli BL21(DE3); dimer
[4]
  Km: 0.37 ± 0.04 mM
[5]
  Km: 9.31 ± 1.99 mM
Purified protein
  Km: 25.62 ± 7.68 mM
